Measurements from patent publication US6071709A, “Nerve growth factor/receptor complex” (The United States of America as represented by the …, priority 1992, dated 2000).

Assays:
p140^prototrk [1] = molecular target: p140^prototrk (Rattus norvegicus, UniProt P35739); experiment: trk tyrosine phosphorylation in rtrk-3T3 cells, suramin treatment followed by NGF (in vivo and immune complex kinase assays); assay type: cell-based; settings: suramin treated rtrk-3T3 cells, NGF (500 ng/ml) added for 10 min
Protocol: Cells were treated with suramin (lanes 2 and 5) or with 500 ng/ml NGF for 10 min following suramin treatment.
rtrk 3T3 cells were generated by CaPO4 mediated transfection of a rat trk cDNA into NIH-3T3 cells. […] PC12 cells or rtrk 3T3 cells (2×10^7) were labeled with ^32 P orthophosphate (1 mCi.ml in 4 ml) for 4 hr at 37° C. […] For c, rtrk 3T3 cells were treated with 1 mM suramin in Dulbecco's Modified Eagle Medium (DMEM) for 2 h or mock treated. Following extensive washing of the cells with DMEM, NGF was added for the time indicated. Cells were lysed and the lysates were immunoprecipitated with trk antibody. Immunoprecipitates were either subjected to immunoblot analysis with the phosphotyrosine (Ptyr) monoclonal antibody 4G10 (Lanes 1-3), or were analyzed in kinase assays. […] Similar amounts of trk protein were present in each lane.

p140^prototrk [2] = experiment: NGF-dependent trk tyrosine phosphorylation in SY5Y cells; assay type: cell-based, human; settings: 100 ng/ml NGF for 5 min
Description: FIGS. 4A-B show NGF-dependent tyrosine phosphorylation of gp140trk in the human neuroblastoma cell lines LA-N-5, SY5Y, and dorsal root ganglia from mouse embryos. FIG. 4A, gp140trk was immunoprecipitated from untreated (-) or NGF treated (+) LA-N-5 cells (K. H. Sonnenfeld and D. N. Ishii, J. Neurosci. Res. 8:375-391 (1982)), SY5Y cells (K. H. Sonnenfeld and D. N. Ishii, (1982)), NR18 cells (M. A. Bothwell et al., Cell 21:857-866 (1980)), or PC12 cells. Immunoprecipitates were probed with P-tyr antibodies. The differences in trk protein mobilities are due to differences in glycosylation. FIG. 4B, Tyrosine phosphorylation of gp140trk in DRGs from 13.5 day or 14.5 day embryonic mice. DRGs were maintained in 100 ng/ml NGF for ≥10 min prior to lysis and immunoprecipitation with trk antibodies. trk immunoprecipitates were probed with P-tyr antibody. Tyrosine phosphorylated gp140trk from NGF-treated (+) PC12 cells or untreated (-) PC12 cells is shown for comparison. Samples were normalized for cell protein. Molecular weight markers in kDa are indicated.
Cell lines were treated with 100 ng/ml NGF for 5 min and gp140trk immunoprecipitated as in FIG. 1. DRGs were prepared by dissection for 13.5 or 14.5 day mouse embryos. […] Lysates were immunoprecipitated with trk antibody and the trk proteins were analyzed by antiphosphotyrosine immunoblots. […]

trk = experiment: Growth factor stimulation of trk transfected 3T3 cells (pJM7-23), COS cell supernatants, Ptyr blot; assay type: cell-based; settings: trk-expressing 3T3 cells (pJM7-23), 100 μl/ml NGF-COS cell supernatant, 10 minutes at 37° C.
Protocol: To study growth factor stimulation in cells transfected with trkB, NIH 3T3 trk transfected 3T3 (pJM7-23), trkB transfected 3T3 cells (pJM8-3) and non-transfected 3T3 cells (control cells) were exposed to media or media containing 100 μl/ml of NGF-COS cell supernatant, 100 μl/ml NT-3 COS cell supernatant, 5 μl/ml human platelet extract, or 50 μl/ml human platelet extract, for 10 minutes at 37° C. The plates were rinsed, lysed, and the trk or trkB was immunoprecipitated with rabbit antisera 443 and protein A Sepharose in the presence or absence of 10 μg/ml blocking peptide. After washing, the beads were denatured in sample buffer, the proteins were separated on a 7.5% gel and transferred to nitrocellulose. The blots were blocked with 2% BSA and probed with an antiphosphotyrosine monoclonal antibody (4G10). After binding of alkaline phosphate-conjugatedrabbit-anti-mouse antibody, the blots were washed and developed with BCIP and NBT.

Sequence of p140^prototrk (Rattus norvegicus, UniProt P35739) (P35739 33-799): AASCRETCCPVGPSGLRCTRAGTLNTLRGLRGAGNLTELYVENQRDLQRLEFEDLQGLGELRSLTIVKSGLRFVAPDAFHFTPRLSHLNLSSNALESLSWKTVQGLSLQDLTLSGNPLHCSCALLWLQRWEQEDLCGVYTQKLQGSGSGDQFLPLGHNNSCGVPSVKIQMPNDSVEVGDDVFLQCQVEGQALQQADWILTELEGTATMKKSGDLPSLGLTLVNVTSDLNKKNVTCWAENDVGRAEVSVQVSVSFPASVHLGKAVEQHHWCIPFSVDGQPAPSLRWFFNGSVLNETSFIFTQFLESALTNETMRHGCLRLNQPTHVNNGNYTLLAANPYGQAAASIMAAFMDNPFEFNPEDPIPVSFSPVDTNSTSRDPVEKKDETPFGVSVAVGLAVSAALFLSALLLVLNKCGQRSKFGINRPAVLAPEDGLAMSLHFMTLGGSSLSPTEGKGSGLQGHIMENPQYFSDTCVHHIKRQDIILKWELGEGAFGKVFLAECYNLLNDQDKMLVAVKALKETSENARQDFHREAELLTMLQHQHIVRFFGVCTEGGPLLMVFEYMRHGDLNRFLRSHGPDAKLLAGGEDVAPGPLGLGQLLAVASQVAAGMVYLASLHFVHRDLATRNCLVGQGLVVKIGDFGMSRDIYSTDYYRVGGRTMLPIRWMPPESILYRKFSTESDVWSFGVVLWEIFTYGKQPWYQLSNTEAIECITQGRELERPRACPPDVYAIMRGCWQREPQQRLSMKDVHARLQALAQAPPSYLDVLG

## NGF: neurotrophic polypeptide factor, nerve growth factor; ligand of trk proto-oncogene receptor
p140^prototrk [1]
  stimulation of tyrosine phosphorylation of gp140^prototrk in vivo and in vitro: at least 10 fold
p140^prototrk [2]
  p140^prototrk tyrosine phosphorylation: enhanced
trk
  stimulation of trk tyrosine phosphorylation: stimulated
